Literature values, collected in patent publication US20040038863A1, “Medical indication” (priority 2002, published 2004).

Conditions: in postmenopausal women; background value used to set the washout period

terminal elimination half-life: approximately 24 hours
SMILES: C=C1C[C@@H]2[C@H](CC[C@]3(C)C(=O)CC[C@@H]23)[C@@]2(C)C=CC(=O)C=C12 [exemestane, 6-methylenandrosta-1,4-diene-3,17-dione]
